Experimental data as given in US10294202B2, “Pyrrolidinones as herbicides” (FMC Corporation, priority 2013, dated 2019).

Tests used:
Assay in all cases: Test C pre-/postemergence herbicide test
velvetleaf = format: in vivo, Abutilon theophrasti
In short: (§1)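 Compound solutions contained surfactant in a non-phytotoxic solvent. These were sprayed onto pots of loam/sand sown with seeds, and onto young plants (2 to 18 cm, 1- to 4-leaf) in sphagnum peat–vermiculite mix. Visual injury scores (0 none, 100 complete control) were recorded after 13 to 15 days.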

morningglory = format: in vivo, Ipomoea coccinea
In short: as §1

wheat (winter wheat) = format: in vivo, Triticum aestivum
In short: as §1

waterhemp = format: in vivo, Amaranthus rudis
In short: as §1

johnsongrass = format: in vivo, Sorghum halepense
In short: as §1

[1] = Postemergence, 31 g ai/ha, scale 0 to 100 (0 no effect, 100 complete control)
[2] = Postemergence, 62 g ai/ha, scale 0 (no effect) to 100 (complete control)
[3] = Postemergence, 125 g ai/ha, scale 0 to 100 (0 no effect, 100 complete control)
[4] = Postemergence, 250 g ai/ha, scale 0 to 100 (0 no effect, 100 complete control)
[5] = Preemergence, 62 g ai/ha, scale 0 to 100 (0 no effect, 100 complete control)
[6] = Preemergence, 125 g ai/ha, scale 0 to 100
[7] = Preemergence, 31 g ai/ha, scale 0 to 100, 0 is no effect and 100 is complete control

Compound	Plant response rating, Velvetleaf (velvetleaf; [1])	Plant response rating, Velvetleaf (velvetleaf; [2])	Plant response rating, Velvetleaf (velvetleaf; [3])	Plant response rating, Velvetleaf (velvetleaf; [4])	Velvetleaf plant response rating (velvetleaf; [5])	Plant response rating, Velvetleaf (velvetleaf; [6])	Plant response rating, Morningglory (morningglory; [1])	Plant response rating, Morningglory (morningglory; [2])	Plant response rating, Morningglory (morningglory; [3])	Plant response rating, Morningglory (morningglory; [4])	Morningglory plant response rating (morningglory; [7])	Morningglory plant response rating (morningglory; [5])	Plant response rating, Morningglory (morningglory; [6])	Plant response rating (scale of 0 to 100), Morningglory (morningglory; Preemergence, 250 g ai/ha)	Plant response rating, Wheat (wheat (winter wheat); [1])	Plant response rating, Wheat (wheat (winter wheat); [2])	Plant response rating, Wheat (wheat (winter wheat); [3])	Plant response rating, Wheat (wheat (winter wheat); [4])	Wheat plant response rating (wheat (winter wheat); [5])	Plant response rating, Wheat (wheat (winter wheat); [6])	other results
O=C1NCC(c2cccc(C(F)(F)F)c2)C1C(=O)Nc1ccccc1Cl (centres unmarked) [Compound 312]	30	0	0	35	15	20	0	0	10	20	0	35	40	55	0	0	0	0	30	60	Plant response rating (scale of 0 to 100), Velvetleaf (velvetleaf; Preemergence, 250 g ai/ha): 40; Plant response rating (scale of 0 to 100), Wheat (wheat (winter wheat); Preemergence, 250 g ai/ha): 65; Plant response rating, Waterhemp (waterhemp; [1]): 0; Plant response rating, Waterhemp (waterhemp; [2]): 45; Plant response rating, Waterhemp (waterhemp; [3]): 20; Plant response rating, Waterhemp (waterhemp; [4]): 20; Waterhemp plant response rating (waterhemp; [5]): 45; Plant response rating, Waterhemp (waterhemp; [6]): 65; Plant response rating (scale of 0 to 100), Waterhemp (waterhemp; Preemergence, 250 g ai/ha): 80; Plant response rating, Johnsongrass (johnsongrass; [1]): 0; Plant response rating, Johnsongrass (johnsongrass; [2]): 0; Plant response rating, Johnsongrass (johnsongrass; [3]): 25; Plant response rating, Johnsongrass (johnsongrass; [4]): 0; Johnsongrass plant response rating (johnsongrass; [7]): 30; Johnsongrass plant response rating (johnsongrass; [5]): 50; Plant response rating, Johnsongrass (johnsongrass; [6]): 80; Plant response rating (scale of 0 to 100), Johnsongrass (johnsongrass; Preemergence, 250 g ai/ha): 85
O=C1NCC(c2cccc(C(F)(F)F)c2)C1C(=O)Nc1ccc(F)c(F)c1F (centres unmarked) [Compound 315]	10	25	30	55	30	40	25	65	35	10	20	25	35	45	0	0	0	5	50	90	Plant response rating (scale of 0 to 100), Velvetleaf (velvetleaf; Preemergence, 250 g ai/ha): 50; Plant response rating (scale of 0 to 100), Wheat (wheat (winter wheat); Preemergence, 250 g ai/ha): 90; Plant response rating, Waterhemp (waterhemp; [1]): 50; Plant response rating, Waterhemp (waterhemp; [2]): 60; Plant response rating, Waterhemp (waterhemp; [3]): 60; Plant response rating, Waterhemp (waterhemp; [4]): 65; Waterhemp plant response rating (waterhemp; [5]): 75; Plant response rating, Waterhemp (waterhemp; [6]): 85; Plant response rating (scale of 0 to 100), Waterhemp (waterhemp; Preemergence, 250 g ai/ha): 85; Plant response rating, Johnsongrass (johnsongrass; [1]): 0; Plant response rating, Johnsongrass (johnsongrass; [2]): 0; Plant response rating, Johnsongrass (johnsongrass; [3]): 0; Plant response rating, Johnsongrass (johnsongrass; [4]): 35; Johnsongrass plant response rating (johnsongrass; [7]): 75; Johnsongrass plant response rating (johnsongrass; [5]): 85; Plant response rating, Johnsongrass (johnsongrass; [6]): 85; Plant response rating (scale of 0 to 100), Johnsongrass (johnsongrass; Preemergence, 250 g ai/ha): 90
O=C1NCC(c2cccc(C(F)(F)F)c2)C1C(=O)Nc1cccc(Cl)c1F (centres unmarked) [Compound 316]	0	0	45	35	10	10	55	0	10	10	0	0	25	35	0	0	0	0	5	40	Plant response rating, Waterhemp (waterhemp; [1]): 10; Plant response rating, Waterhemp (waterhemp; [2]): 10; Plant response rating, Waterhemp (waterhemp; [3]): 10; Plant response rating, Waterhemp (waterhemp; [4]): 55; Waterhemp plant response rating (waterhemp; [5]): 35; Plant response rating, Waterhemp (waterhemp; [6]): 35; Plant response rating, Johnsongrass (johnsongrass; [1]): 0; Plant response rating, Johnsongrass (johnsongrass; [2]): 0; Plant response rating, Johnsongrass (johnsongrass; [3]): 0; Plant response rating, Johnsongrass (johnsongrass; [4]): 0; Johnsongrass plant response rating (johnsongrass; [7]): 50; Johnsongrass plant response rating (johnsongrass; [5]): 75; Plant response rating, Johnsongrass (johnsongrass; [6]): 75; Plant response rating (scale of 0 to 100), Johnsongrass (johnsongrass; Preemergence, 250 g ai/ha): 85
Cc1cccc(NC(=O)C2C(=O)NCC2c2cccc(C(F)(F)F)c2)c1 (centres unmarked) [Compound 317]	0	0	0	0	0	0	0	0	0	10	25	0	0	0	0	0	0	0	0	0	Plant response rating, Waterhemp (waterhemp; [1]): 0; Plant response rating, Waterhemp (waterhemp; [2]): 0; Plant response rating, Waterhemp (waterhemp; [3]): 20; Plant response rating, Waterhemp (waterhemp; [4]): 0; Waterhemp plant response rating (waterhemp; [5]): 0; Plant response rating, Waterhemp (waterhemp; [6]): 10; Plant response rating, Johnsongrass (johnsongrass; [1]): 0; Plant response rating, Johnsongrass (johnsongrass; [2]): 0; Plant response rating, Johnsongrass (johnsongrass; [3]): 0; Plant response rating, Johnsongrass (johnsongrass; [4]): 5; Johnsongrass plant response rating (johnsongrass; [7]): 0; Johnsongrass plant response rating (johnsongrass; [5]): 0; Plant response rating, Johnsongrass (johnsongrass; [6]): 0; Plant response rating (scale of 0 to 100), Johnsongrass (johnsongrass; Preemergence, 250 g ai/ha): 30
O=C1NCC(c2cccc(OC(F)F)c2)C1C(=O)Nc1cccc(F)c1F (centres unmarked) [Compound 324]	0	55	50	55	35	40	10	5	10	15	0	0	35	55	0	0	0	0	25	65	Plant response rating, Waterhemp (waterhemp; [1]): 0; Plant response rating, Waterhemp (waterhemp; [2]): 10; Plant response rating, Waterhemp (waterhemp; [3]): 20; Plant response rating, Waterhemp (waterhemp; [4]): 40; Waterhemp plant response rating (waterhemp; [5]): 70; Plant response rating, Waterhemp (waterhemp; [6]): 80; Plant response rating, Johnsongrass (johnsongrass; [1]): 0; Plant response rating, Johnsongrass (johnsongrass; [2]): 0; Plant response rating, Johnsongrass (johnsongrass; [3]): 0; Plant response rating, Johnsongrass (johnsongrass; [4]): 10; Johnsongrass plant response rating (johnsongrass; [7]): 40; Johnsongrass plant response rating (johnsongrass; [5]): 65; Plant response rating, Johnsongrass (johnsongrass; [6]): 80; Plant response rating (scale of 0 to 100), Johnsongrass (johnsongrass; Preemergence, 250 g ai/ha): 85
